Test results from patent US20250152675A1, “I-TYPE RECOMBINANT COLLAGEN WITH HIGH TRANSDERMAL ABSORBABILITY, AND USE THEREOF” (XI'AN GIANT BIOGENE TECHNOLOLGY CO., LTD, priority 2022, published 2025).
Residues, ends and D or L forms follow the SMILES beside them.

Assay: Transdermal penetration through ex vivo mouse skin in a single-chamber diffusion cell, content by BCA kit
Assay type: in vitro ADME, Kunming mice
Conditions: collagen peptide 5 mg/ml in 0.9% NaCl, diffusion area 2.0 cm^2, 37.5° C.
Description: 1. Preparation of Mouse Skin Ex Vivo 10 Kunming mice of 20 to 22 g with half male and half […] were used in the experiment. After the mice were killed, the hairs on the abdomen were removed. Then the skin on the hair-removed area was peeled off, stripped of fat and tendons, and rinsed repeatedly with distilled water. After being washed, the mouse skins were rinsed with normal saline, then treated with 10% glycerol, and stored at −20° C. for use (use up within 7 days).
Single-chamber diffusion cell: The effective diffusion area of the diffusion cell is 2.0 cm^2, the volume of the receiving cell is 14 ml, the length of the custom-made stirrer is 1.4 cm, and the receiving solution is 0.9% NaCl solution.
The stored mouse skin was taken out, thawed, washed with normal saline, and sandwiched between the receiving chamber and the supplying chamber, with the medicated side facing the supplying chamber and the skin side facing the receiving chamber. The temperature of the water bath system was adjusted to 37.5° C., and the stirring speed was adjusted to 100 rpm/min. 0.9% NaCl solution pre-warmed at 37° C. was added to the receiving chamber and the air bubbles were exhausted, in order to reduce the interference, the inner surface of the mouse skin was firstly contacted with the receiving solution without medication and all the receiving solution was replaced. Then the 27 collagen peptides synthesized were prepared into 5 mg/ml solutions using 0.9% NaCl respectively, which were injected into the supplying chamber and firmly adhere to the mouse skin respectively. After 24 h, part of the receiving solution was absorbed with a syringe as the sample solution to determine the transdermal amount of collagen peptide.
The BCA kit method was used to determine the polypeptide content in the sample solution. […]

| SMILES | 24h penetration amount [µg] |
| --- | --- |
| CC(C)C[C@H](NC(=O)[C@H](CC(=O)O)NC(=O)CNC(=O)[C@@H]1CCCN1C(=O)[C@@H](NC(=O)CNC(=O)[C@H](CCC(N)=O)NC(=O)[C@H](CCC(=O)O)NC(=O)CNC(=O)[C@@H]1CCCN1C(=O)[C@H](CCCCN)NC(=O)CNC(=O)[C@H](C)NC(=O)[C@H](CCC(=O)O)NC(=O)CNC(=O)[C@@H]1CCCN1C(=O)[C@@H]1CCCN1C(=O)CN)C(C)C)C(=O)NCC(=O)N[C@@H](C)C(=O)N1CCC[C@H]1C(=O)NCC(=O)N1CCC[C@H]1C(=O)N[C@@H](CO)C(=O)NCC(=O)N[C@@H](C)C(=O)N[C@@H](CCCNC(=N)N)C(=O)NCC(=O)N[C@@H](CCC(=O)O)C(=O)N[C@@H](CCCNC(=N)N)C(=O)NCC(=O)N[C@@H](Cc1ccccc1)C(=O)N1CCC[C@H]1C(=O)NCC(=O)N[C@@H](CCC(=O)O)C(=O)N[C@@H](CCCNC(=N)N)C(=O)O [compound 25] (H-GPPGEAGKPGEQGVPGDLGAPGPSGARGERGFPGER-OH; N-terminus and C-terminus assumed) | 2255.78 |
| CSCC[C@H](NC(=O)[C@H](CCC(N)=O)NC(=O)CNC(=O)[C@@H]1CCCN1C(=O)[C@H](C)NC(=O)CNC(=O)[C@H](CC(N)=O)NC(=O)[C@H](CCC(=O)O)NC(=O)CNC(=O)[C@@H]1CCCN1C(=O)[C@H](CO)NC(=O)CNC(=O)[C@@H]1CCCN1C(=O)[C@H](CCC(=O)O)NC(=O)CNC(=O)[C@H](CCCCN)NC(=O)[C@@H]1CCCN1C(=O)CNC(=O)[C@H](C)NC(=O)[C@@H]1CCCN1C(=O)CNC(=O)[C@H](C)NC(=O)[C@H](CC(=O)O)NC(=O)CNC(=O)[C@H](CCCCN)NC(=O)[C@H](C)NC(=O)CN)C(=O)NCC(=O)N1CCC[C@H]1C(=O)N[C@@H](CCCNC(=N)N)C(=O)NCC(=O)N[C@@H](CC(C)C)C(=O)N1CCC[C@H]1C(=O)NCC(=O)N[C@@H](CCC(=O)O)C(=O)N[C@@H](CCCNC(=N)N)C(=O)O [compound 4] (H-GAKGDAGPAGPKGEPGSPGENGAPGQMGPRGLPGER-OH; N-terminus and C-terminus assumed) | 2034.78 |
| CSCC[C@H](NC(=O)[C@@H]1CCCN1C(=O)CNC(=O)[C@@H]1CCCN1C(=O)[C@@H]1CCCN1C(=O)CNC(=O)[C@H](CCCNC(=N)N)NC(=O)[C@H](CCC(=O)O)NC(=O)CN)C(=O)NCC(=O)N1CCC[C@H]1C(=O)N1CCC[C@H]1C(=O)NCC(=O)N[C@@H](CC(C)C)C(=O)N[C@@H](C)C(=O)NCC(=O)N1CCC[C@H]1C(=O)N1CCC[C@H]1C(=O)NCC(=O)N[C@@H](CCC(=O)O)C(=O)N[C@@H](CO)C(=O)NCC(=O)N[C@@H](CCCNC(=N)N)C(=O)N[C@@H](CCC(=O)O)C(=O)NCC(=O)N[C@@H](C)C(=O)N1CCC[C@H]1C(=O)NCC(=O)N[C@@H](C)C(=O)N[C@@H](CCC(=O)O)C(=O)NCC(=O)N[C@@H](CO)C(=O)N1CCC[C@H]1C(=O)NCC(=O)N[C@@H](CCCNC(=N)N)C(=O)N[C@@H](CC(=O)O)C(=O)O [compound 24] (H-GERGPPGPMGPPGLAGPPGESGREGAPGAEGSPGRD-OH; N-terminus and C-terminus assumed) | 2234.67 |
| CSCC[C@H](NC(=O)CNC(=O)[C@H](CCC(N)=O)NC(=O)[C@H](CC(C)C)NC(=O)CNC(=O)[C@@H]1CCCN1C(=O)[C@H](C)NC(=O)CNC(=O)[C@H](CCC(N)=O)NC(=O)[C@H](CO)NC(=O)CNC(=O)[C@@H]1CCCN1C(=O)[C@H](C)NC(=O)CNC(=O)[C@@H]1CCCN1C(=O)[C@H](C)NC(=O)CN)C(=O)N1CCC[C@H]1C(=O)NCC(=O)N[C@@H](CCC(=O)O)C(=O)N[C@@H](CCCNC(=N)N)C(=O)NCC(=O)N[C@@H](C)C(=O)N[C@@H](C)C(=O)NCC(=O)N[C@@H](CC(C)C)C(=O)N1CCC[C@H]1C(=O)NCC(=O)N1CCC[C@H]1C(=O)N[C@@H](CCCCN)C(=O)NCC(=O)N[C@@H](CC(=O)O)C(=O)N[C@@H](CCCNC(=N)N)C(=O)NCC(=O)N[C@@H](CC(=O)O)C(=O)N[C@@H](C)C(=O)O [compound 17] (H-GAPGAPGSQGAPGLQGMPGERGAAGLPGPKGDRGDA-OH; N-terminus and C-terminus assumed) | 2998.75 |

More lines, now with the values ahead:

| 24h penetration amount [µg] | SMILES |
| --- | --- |
| 2323.45 | CSCC[C@H](NC(=O)[C@@H]1CCCN1C(=O)CNC(=O)[C@@H]1CCCN1C(=O)[C@@H]1CCCN1C(=O)CNC(=O)[C@H](CCCNC(=N)N)NC(=O)[C@H](CCC(=O)O)NC(=O)CNC(=O)[C@H](CO)NC(=O)[C@H](C)NC(=O)CNC(=O)[C@H](CO)NC(=O)[C@@H]1CCCN1C(=O)CNC(=O)[C@H](CCC(N)=O)NC(=O)[C@H](CCCCN)NC(=O)CNC(=O)[C@@H]1CCCN1C(=O)[C@H](CCC(=O)O)NC(=O)CN)C(=O)NCC(=O)N1CCC[C@H]1C(=O)N1CCC[C@H]1C(=O)NCC(=O)N[C@@H](CC(C)C)C(=O)N[C@@H](C)C(=O)NCC(=O)N1CCC[C@H]1C(=O)N1CCC[C@H]1C(=O)NCC(=O)N[C@@H](CCC(=O)O)C(=O)N[C@@H](CO)C(=O)NCC(=O)N[C@@H](CCCNC(=N)N)C(=O)N[C@@H](CCC(=O)O)C(=O)O [compound 23] (H-GEPGKQGPSGASGERGPPGPMGPPGLAGPPGESGRE-OH; N-terminus and C-terminus assumed) |
| 2111.23 | CC(C)[C@H](NC(=O)CNC(=O)[C@H](CCCNC(=N)N)NC(=O)[C@H](CCC(=O)O)NC(=O)CN)C(=O)N[C@@H](CCC(N)=O)C(=O)NCC(=O)N1CCC[C@H]1C(=O)N1CCC[C@H]1C(=O)NCC(=O)N1CCC[C@H]1C(=O)N[C@@H](C)C(=O)NCC(=O)N1CCC[C@H]1C(=O)N[C@@H](CCCNC(=N)N)C(=O)NCC(=O)N[C@@H](C)C(=O)N[C@@H](CC(N)=O)C(=O)NCC(=O)N[C@@H](C)C(=O)N1CCC[C@H]1C(=O)NCC(=O)N[C@@H](CC(N)=O)C(=O)N[C@@H](CC(=O)O)C(=O)NCC(=O)N[C@@H](C)C(=O)N[C@@H](CCCCN)C(=O)NCC(=O)N[C@@H](CC(=O)O)C(=O)N[C@@H](C)C(=O)NCC(=O)N[C@@H](C)C(=O)N1CCC[C@H]1C(=O)NCC(=O)N[C@@H](C)C(=O)N1CCC[C@H]1C(=O)O [compound 15] (H-GERGVQGPPGPAGPRGANGAPGNDGAKGDAGAPGAP-OH; N-terminus and C-terminus assumed) |
| 2432.23 | CC[C@H](C)[C@H](NC(=O)CNC(=O)[C@H](CCC(N)=O)NC(=O)[C@@H]1CCCN1C(=O)CNC(=O)[C@@H]1CCCN1C(=O)[C@@H](NC(=O)CNC(=O)[C@@H]1CCCN1C(=O)[C@H](C)NC(=O)CNC(=O)[C@H](C)NC(=O)[C@@H]1CCCN1C(=O)CNC(=O)[C@H](CC(=O)O)NC(=O)[C@H](C)NC(=O)CNC(=O)[C@@H]1CCCN1C(=O)[C@H](CO)NC(=O)CN)[C@@H](C)O)C(=O)N[C@@H](C)C(=O)NCC(=O)N[C@@H](CCC(N)=O)C(=O)N[C@@H](CCCNC(=N)N)C(=O)NCC(=O)N[C@H](C(=O)N[C@H](C(=O)NCC(=O)N[C@@H](CC(C)C)C(=O)N1CCC[C@H]1C(=O)NCC(=O)N[C@@H](CCC(N)=O)C(=O)N[C@@H](CCCNC(=N)N)C(=O)NCC(=O)N[C@@H](CCC(=O)O)C(=O)N[C@@H](CCCNC(=N)N)C(=O)O)C(C)C)C(C)C [compound 19] (H-GSPGADGPAGAPGTPGPQGIAGQRGVVGLPGQRGER-OH; N-terminus and C-terminus assumed) |
| 2509.11 | CC[C@H](C)[C@H](NC(=O)CN)C(=O)N[C@@H](C)C(=O)NCC(=O)N[C@@H](CCC(N)=O)C(=O)N[C@@H](CCCNC(=N)N)C(=O)NCC(=O)N[C@H](C(=O)N[C@H](C(=O)NCC(=O)N[C@@H](CC(C)C)C(=O)N1CCC[C@H]1C(=O)NCC(=O)N[C@@H](CCC(N)=O)C(=O)N[C@@H](CCCNC(=N)N)C(=O)NCC(=O)N[C@@H](CCC(=O)O)C(=O)N[C@@H](CCCNC(=N)N)C(=O)NCC(=O)N[C@@H](Cc1ccccc1)C(=O)N1CCC[C@H]1C(=O)NCC(=O)N[C@@H](CC(C)C)C(=O)N1CCC[C@H]1C(=O)NCC(=O)N1CCC[C@H]1C(=O)N[C@@H](CO)C(=O)NCC(=O)N[C@@H](CCC(=O)O)C(=O)N1CCC[C@H]1C(=O)NCC(=O)N[C@@H](CCCCN)C(=O)N[C@@H](CCC(N)=O)C(=O)NCC(=O)N1CCC[C@H]1C(=O)N[C@@H](CO)C(=O)O)C(C)C)C(C)C [compound 20] (H-GIAGQRGVVGLPGQRGERGFPGLPGPSGEPGKQGPS-OH; N-terminus and C-terminus assumed) |
| 2199.78 | CSCC[C@H](NC(=O)[C@@H]1CCCN1C(=O)CNC(=O)[C@@H]1CCCN1C(=O)[C@@H]1CCCN1C(=O)CNC(=O)[C@H](CCCNC(=N)N)NC(=O)[C@H](CCC(=O)O)NC(=O)CNC(=O)[C@H](CO)NC(=O)[C@H](C)NC(=O)CNC(=O)[C@H](CO)NC(=O)[C@@H]1CCCN1C(=O)CNC(=O)[C@H](CCC(N)=O)NC(=O)[C@H](CCCCN)NC(=O)CNC(=O)[C@@H]1CCCN1C(=O)[C@H](CCC(=O)O)NC(=O)CNC(=O)[C@H](CO)NC(=O)[C@@H]1CCCN1C(=O)CNC(=O)[C@@H]1CCCN1C(=O)[C@H](CC(C)C)NC(=O)CNC(=O)[C@@H]1CCCN1C(=O)[C@H](Cc1ccccc1)NC(=O)CNC(=O)[C@H](CCCNC(=N)N)NC(=O)[C@H](CCC(=O)O)NC(=O)CN)C(=O)NCC(=O)N1CCC[C@H]1C(=O)N1CCC[C@H]1C(=O)O [compound 21] (H-GERGFPGLPGPSGEPGKQGPSGASGERGPPGPMGPP-OH; N-terminus and C-terminus assumed) |
